Measurements as given in PMC11339798, “Dual inhibitors of Pseudomonas aeruginosa virulence factors LecA and LasB” (Chemical Science, 2024).

What was measured:
HEK293 = experiment: Cytotoxicity MTT assay; format: cell-based, human; conditions: HEK293, at 100 μM
Protocol: (§1) Selectivity and toxicity assays […]
(§2) Cytotoxicity on human liver (HepG2), kidney (HEK293) and lung (A549) cells were performed
(§3) using MTT assay and measuring the optical density (OD) photometrically at 570 nm in a […]

HepG2 = experiment: Cytotoxicity MTT assay; format: cell-based, human; conditions: HepG2, at 100 μM
Protocol: as §1, §2, §3

Cytotoxicity MTT assay [1] = format: cell-based, human; conditions: human
Protocol: as §1, §2, §3

LasB = target: T1, LasB (Pseudomonas aeruginosa, UniProt Q02RJ6); experiment: FRET-based in vitro LasB inhibition (proteolysis) assay; format: biochemical, P. aeruginosa PA14
T1 construct: P. aeruginosa PA14 culture supernatant; made in house; host or cells: native secreted enzyme purified from P. aeruginosa PA14 culture supernatant (not recombinant)
Protocol: The LasB activity of the thiol derivatives 11, 12, 17, 18, 24 and 25 was tested using a functional FRET-based in vitro proteolysis assay (Fig. 4A). […]
(§4) Expression and purification of LasB and LecA
LecA was expressed recombinantly using E. coli pET25-pail, whereas LasB was isolated from P. aeruginosa PA14 culture supernatant as described previously. 1,2 […]
In vitro inhibition assay for LasB
The in vitro inhibition assay was performed as described previously,2 using purified LasB (final concentration 0.3 nM), the fluorogenic substrate 2-aminobenzoyl-Ala-Gly-Leu-Ala-4-nitrobenzylamide (purchased from Peptides International (Louisville, KY, USA) or Vivitide, LLC (Gardner, MA, USA), final concentration 150 µM)) in assay buffer (50 mM Tris, pH 7.2, 2.5 mM CaCl2, 0.075% Pluronic F-127, 5% DMSO). Fluorescence was measured using a CLARIOstar plate reader (BMG Labtech, Ortenberg, Germany). IC50 values were calculated using GraphPad Prism 8 (GraphPad Software, San Diego, CA, USA) from at least three independent experiments performed in duplicate.

Cytotoxicity MTT assay [2] = format: cell-based, human; conditions: human, A549 cells (lung)
Protocol: as §1
(§5) Cytotoxicity on human liver (HepG2), kidney (HEK293) and lung (A549) cells were performed using MTT assay and measuring the optical density (OD) photometrically at 570 nm in a FLUOstar Omega plate reader (BMG labtech, Ortenberg, Germany) as described previously. 6 […]
(§6) The A549 cell line, derived from human lung adenocarcinoma, was grown in Dulbecco's Modified Eagle Medium (DMEM) supplemented with 10% Fetal Bovine Serum (FBS) and 1% penicillin-streptomycin. […]

A549 = experiment: Cytotoxicity MTT assay; format: cell-based, human; conditions: A549, at 100 μM
Protocol: as §1, §5, §6

LecA = target: T2, LecA (Pseudomonas aeruginosa, UniProt Q05097); experiment: Competitive binding assay for LecA based on fluorescence polarization; design: species or system P. aeruginosa
T2 construct: made in house; host or cells: E. coli (plasmid pET25-pail)
Protocol: The four thiols 17, 18, 24 and 25 as well as three disulfides 26a, 26b and 27 were then evaluated for their activity against LecA using a competitive binding assay based on fluorescence polarization (Fig. 4B). […]
as §4
LecA was expressed recombinantly using E. coli pET25-pail, whereas LasB was isolated from P. aeruginosa PA14 culture supernatant as described previously. 1,2
LecA labeling with fluorescein was performed in analogy to Sommer et al. 3 and Beshr et al.4 To this end fluorescein isothiocyanate (FITC) was freshly dissolved in carbonate-bicarbonate buffer with pH of 9.3 at a concentration of 3 mg mL-1. Subsequently, 66 µL of this FITC solution was combined with 1.4 mL of LecA at a concentration of 60 µM in carbonate-bicarbonate buffer, pH 9.3. The resulting mixture was then incubated at 25 °C with shaking at 500 rpm for 1 hour. Then, extensive washing with PBS/Ca2+ in a 5 kDa molecular weight cutoff centrifugal concentrator was performed to remove excess dye and buffer the labelled protein. […]
Competitive binding assay for LecA
The procedure for the fluorescence polarization-based competitive binding assay for LecA was performed as reported by Joachim et al. with modifications. 1 The assay was performed in TBS/Ca2+ buffer (20 mM Tris, 137 mM NaCl, 2.6 mM KCl at pH 7.4 supplemented with 1 mM CaCl 2 and contained 5% DMSO). The final protein concentration in the assay was 5 µM for LecA. Fluorescence intensities were recorded on a PheraStar FS plate reader (BMG Labtech GmbH, Germany) and polarization was calculated using MARS Data Analysis (BMG Labtech).
IC50 values were obtained from a four-parameter curve-fitting procedure. Averages and standard deviations were calculated from at least three independent experiments of technical

T2 sequence (Q05097 whole entry): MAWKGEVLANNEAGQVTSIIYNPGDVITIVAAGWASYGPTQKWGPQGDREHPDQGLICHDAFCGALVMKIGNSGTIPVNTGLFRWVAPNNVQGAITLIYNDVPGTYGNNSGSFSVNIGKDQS
T1 sequence (Q02RJ6 198-498): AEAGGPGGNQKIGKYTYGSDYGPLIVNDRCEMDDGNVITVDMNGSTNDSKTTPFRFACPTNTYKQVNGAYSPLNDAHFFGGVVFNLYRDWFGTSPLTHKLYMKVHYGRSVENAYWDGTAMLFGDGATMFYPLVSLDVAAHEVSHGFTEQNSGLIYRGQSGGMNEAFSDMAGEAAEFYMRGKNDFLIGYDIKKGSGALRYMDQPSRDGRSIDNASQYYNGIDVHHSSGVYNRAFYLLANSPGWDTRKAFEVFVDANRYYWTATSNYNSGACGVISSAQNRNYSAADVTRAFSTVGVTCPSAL

| SMILES | cytotoxicity (HEK293) | cytotoxicity (HepG2) | IC50 (Cytotoxicity MTT assay [1]; HEK293 cells (kidney)) [µM] | IC50 (Cytotoxicity MTT assay [1]; HepG2 cells (liver)) [µM] | IC50 (LasB) [µM] | IC50 (Cytotoxicity MTT assay [2]) [µM] | cytotoxicity (A549) | IC50 (LecA) [µM] |
| --- | --- | --- | --- | --- | --- | --- | --- | --- |
| O=C(Nc1ccc(S[C@@H]2O[C@H](CO)[C@H](O)[C@H](O)[C@H]2O)cc1)C(S)Cc1ccccc1 (stereo partly shown) [Compound 11] | no detectable cytotoxicity | no detectable cytotoxicity | > 100 | > 100 | 0.3 | > 100 | no detectable cytotoxicity | 18.1 |
| CC(C)CC(S)C(=O)Nc1ccc(S[C@@H]2O[C@H](CO)[C@H](O)[C@H](O)[C@H]2O)cc1 (stereo partly shown) [Compound 12] | no detectable cytotoxicity | no detectable cytotoxicity | > 100 | > 100 | 0.8 | > 100 | no detectable cytotoxicity | 19.8 |
